Results: article PMC4493701, “Quantitative and qualitative analysis of the novel antitumor 1,3,4-oxadiazole derivative (GLB) and its metabolites using HPLC-UV and UPLC-QTOF-MS” (Scientific Reports, 2015)

Columns and labels:
[1] = Stability of GLB in rat plasma QC samples under storage and processing conditions (HPLC-UV); type: in vitro ADME; settings: for Measured concentration / Accuracy (RE, %): rat plasma
Procedure: The stability of GLB in rat plasma was determined by analyzing QC samples that was stored in different conditions, including: 1) room-temperature, 2) light irradiation for 24 hours, 3) post-preparation (the extracted samples stored at 4 °C for 48 hours and one week), 4) three cycles of freeze and thaw (freezing at −20 °C for 24 hours and thawing at room temperature), 5) long-term stored in −20 °C for up to 2 weeks, 1 month and 3 months, respectively. All the QC samples for stability assessment were analyzed in triplicate.
Under manifold storage and processing conditions, the stability of GLB in rat plasma was evaluated by analyzing three replicates for QC samples at 0.025, 0.5 and 4 μg/mL.
Calibration standard solutions were prepared by adding 25 μL of working standard solutions of GLB and IS into 375 μL blank rat plasma to achieve final concentrations of GLB of 0.01, 0.025, 0.05, 0.1, 0.5, 1, 4 and 8 μg/mL, and IS concentration of 1 μg/mL, respectively. QC samples were prepared in the same way using the low, medium and high concentrations of 0.025, 0.5 and 4 μg/mL, respectively.

[2] = tested on: thymidine phosphorylase; settings: cited from earlier work
[3] = tested on: tumor angiogenesis, growth and metastasis; parameters: method as in PMID 15960897; settings: in vivo; cited from earlier work
[4] = Identification of GLB metabolites in rat plasma by UPLC-ESI-QTOF-MS; type: in vivo; settings: rat plasma after oral GLB 100 mg/kg; tentative, no metabolite standards
Excerpt: Because of two unknown chromatographic peaks were detected by HPLC after oral dose GLB in rat plasma, their structures were further identified and the metabolic pathways were investigated using UPLC-MS method. […] Based on the chromatographic retention times and mass spectral patterns (m/z and mass errors) between the parent drug and their product ions, the structures of metabolites of GLB could be estimated, in spite of lacking standards of metabolites. […] Metabolites M1 and M2 were detected at shorter retention times (2.56 and 2.86 min, respectively), and heavier molecular ions as m/z 529 (497 + 32 Da) and 513 (497 + 16 Da), respectively.
Furthermore, under the tandem mass spectrometry positive scan mode condition, the parent compound GLB was detected as protonated molecular ions at m/z 499 ([M+H]+) and sodium adduct (520, [M+Na]+), and fragment ion m/z 441, respectively (Fig. 3C). The metabolite M1 was detected as protonated molecular ions at m/z 529 ([M+H]+) and sodium adduct (m/z […], [M+Na]+), and fragment ions m/z 457, 449, 435 and 401, respectively. […]
The structure identifications of GLB and its metabolites were analyzed using a validated ultra-performance liquid chromatography- electrospray ionization-quadrupole-time-of-flight mass spectrometry (UPLC-ESI-QTOF-MS) method, as described in previous publications. […]

[5] = Freezing storage −20 °C for 1 month, actual concentration 0.025 μg/mL
[6] = Freezing storage −20 °C for 2 weeks, actual concentration 0.025 μg/mL
[7] = Freezing storage −20 °C for 2 weeks, actual concentration 0.5 μg/mL
[8] = Freezing storage −20 °C for 2 weeks, actual concentration 4 μg/mL
[9] = Light and room temperature for 24 hours, actual concentration 0.025 μg/mL
[10] = Light and room temperature for 24 hours, actual concentration 0.5 μg/mL
[11] = Light and room temperature for 24 hours, actual concentration 4 μg/mL
[12] = Post-preparative, 4 °C for 1 week, actual concentration 0.025 μg/mL
[13] = Post-preparative, 4 °C for 1 week, actual concentration 0.5 μg/mL
[14] = Post-preparative, 4 °C for 1 week, actual concentration 4 μg/mL
[15] = Post-preparative, 4 °C for 48 hours, actual concentration 0.025 μg/mL
[16] = Post-preparative, 4 °C for 48 hours, actual concentration 0.5 μg/mL
[17] = Post-preparative, 4 °C for 48 hours, actual concentration 4 μg/mL

CC(=O)N1N=C(c2ccc(Br)cc2)OC12C1OC(C)(C)OC1COC21COC(C)(C)O1 (centres unmarked) [GLB, Fructose-based 3-acetyl-2,3-dihydro-1,3,4-oxadiazole]
Stability in rat plasma ([1]; 24 hours, 48 hours and 1 week at 4 °C, 2 weeks, 1 month and 3 months at −20 °C, three freeze-thaw cycles): stable | Measured concentration ([1]; Freeze-thawing 3 cycles (−20 °C), actual concentration 0.025 μg/mL): 0.025 ± 0.001 µg/mL | Measured concentration ([1]; Freeze-thawing 3 cycles (−20 °C), actual concentration 0.5 μg/mL): 0.467 ± 0.036 µg/mL | Measured concentration ([1]; Freeze-thawing 3 cycles (−20 °C), actual concentration 4 μg/mL): 3.732 ± 0.227 µg/mL | Accuracy (RE, %) [1, 5]: 8.66% | Measured concentration [1, 5]: 0.027 ± 0.002 µg/mL | Measured concentration ([1]; Freezing storage −20 °C for 1 month, actual concentration 0.5 μg/mL): 0.490 ± 0.015 µg/mL | Measured concentration ([1]; Freezing storage −20 °C for 1 month, actual concentration 4 μg/mL): 4.097 ± 0.213 µg/mL | Accuracy (RE, %) [1, 6]: 8.17% | Measured concentration [1, 6]: 0.027 ± 0.001 µg/mL | Accuracy (RE, %) [1, 7]: 7.10% | Measured concentration [1, 7]: 0.535 ± 0.009 µg/mL | Accuracy (RE, %) [1, 8]: 9.84% | Measured concentration [1, 8]: 4.393 ± 0.090 µg/mL | Measured concentration ([1]; Freezing storage −20 °C for 3 months, actual concentration 0.025 μg/mL): 0.023 ± 0.002 µg/mL | Measured concentration ([1]; Freezing storage −20 °C for 3 months, actual concentration 0.5 μg/mL): 0.487 ± 0.003 µg/mL | Measured concentration ([1]; Freezing storage −20 °C for 3 months, actual concentration 4 μg/mL): 3.918 ± 0.063 µg/mL | Accuracy (RE, %) [1, 9]: 4.17% | Measured concentration [1, 9]: 0.026 ± 0.002 µg/mL | Accuracy (RE, %) [1, 10]: −2.79% | Measured concentration [1, 10]: 0.486 ± 0.027 µg/mL | Accuracy (RE, %) [1, 11]: −1.94% | Measured concentration [1, 11]: 3.922 ± 0.055 µg/mL | Accuracy (RE, %) [1, 12]: 3.83% | Measured concentration [1, 12]: 0.026 ± 0.001 µg/mL | Accuracy (RE, %) [1, 13]: −14.4% | Measured concentration [1, 13]: 0.428 ± 0.010 µg/mL | Accuracy (RE, %) [1, 14]: −8.30% | Measured concentration [1, 14]: 3.668 ± 0.219 µg/mL | Accuracy (RE, %) [1, 15]: 5.31% | Measured concentration [1, 15]: 0.026 ± 0.001 µg/mL | Accuracy (RE, %) [1, 16]: 5.62% | Measured concentration [1, 16]: 0.528 ± 0.007 µg/mL | Accuracy (RE, %) [1, 17]: 5.83% | Measured concentration [1, 17]: 4.233 ± 0.196 µg/mL | Thymidine phosphorylase inhibition [2]: thymidine phosphorylase inhibitor | Effect on tumor angiogenesis, growth and metastasis [3]: block the tumor angiogenesis, growth and metastasis in vivo

CC(=O)N1N=C(c2ccc(Br)cc2)OC1(C1OC(C)(C)OC1C(=O)O)C1(O)COC(C)(C)O1 (centres unmarked) [M1]
Identification (metabolic modification of GLB) [4]: Di-hydroxylation
